The target in assay [1] is human catalytic domain HDAC4 protein (Homo sapiens (Human), UniProt P56524). Description: Inhibition of HDAC4 catalytic domain, Boc-Lys(TFA)-AMC fluorogenic substrate. Particulars: read-out: HDAC4 Biochemical IC50. The source says: Example 13: Analysis of Inhibition of HDAC4 with Class IIa Histone Deacetylase (HDAC) Inhibitors
The potency of Class IIa Histone Deacetylase (HDAC) inhibitors was quantified by measuring the Histone Deacetylase 4 (HDAC4) catalytic domain enzymatic activity using the fluorogenic substrate, Boc-Lys(TFA)-AMC. The substrate was deacetylated to Boc-Lys-AMC by HDAC4. […] The fluorescence of the sample was directly related to the histone deacetylase activity in the sample.
Serial dilutions of the HDAC inhibitors and control reference compound (1-(5-(3-((4-(1,3,4-oxadiazol-2-yl)phenoxy)methyl)-1,2,4-oxadiazol-5-yl)thiophen-2-yl)-2,2,2-trifluoroethanone) were made by first resuspending the lyophilized compound to a final concentration of 10 mM in 100% dimethyl sulfoxide (DMSO). Stocks of 60 μL aliquots of the 10 mM compound in DMSO were prepared and stored at −20° C. From one stock aliquot of each tested compound and the reference compound, a 16-point serial dilution was prepared according to Table 1 using a 125 μL 16-channel Matrix multi-channel pipette (Matrix Technologies Ltd).
2 μL (200×) of each diluted solution and each control (full activity: 100% DMSO alone or full inhibition 1 mM) was stamped into V-bottomed polypropylene 384-well compound plates using either the Bravo (384-well head from Agilent) or 12.5 μL 16-channel Matrix multi-channel pipette (Matrix Technologies Ltd). Each well with the 200× compound solution was diluted 1:20 by the addition of 38 μL assay buffer+DMSO (10.5% DMSO, 45 mM Tris-HCl, 123 mM NaCl, 2.4 mM KCl, and 0.9 mM MgCl2 at pH 8.0 and equilibrated to r.t.).
The HDAC4 catalytic domain enzyme was human catalytic domain HDAC4 protein (amino acids 648-1032) with a C-terminal 6× histidine tag, produced by BioFocus. A working solution of enzyme was prepared from a 500 μg/mL stock aliquot of HDAC4 catalytic domain (thawed on ice) diluted to 0.2 μg/mL with assay buffer (50 mM Tris-HCl, 137 mM NaCl, 2.7 mM KCl, and 1 mM MgCl2 at pH 8 and equilibrated to r.t.) just prior to the addition of the enzyme to the assay.
5× (50 μM) substrate was prepared just prior to the addition to the assay. A 1 mM substrate stock was made by diluting a 100 mM Boc-Lys(TFA)-AMC in DMSO solution 1:100 by adding it drop-wise to assay buffer (equilibrated to r.t.) while vortexing at slow speed to prevent precipitation. The 5× substrate was prepared by diluting the 1 mM substrate solution 1:20 by adding it drop-wise to assay buffer (equilibrated to r.t.) while vortexing at slow speed to prevent precipitation.
3× (30 μM) Developer/Stop Solution was prepared just prior to addition to the plate by diluting a stock solution of 10 mM reference compound 1:333 in 25 mg/mL trypsin (PAA Laboratories Ltd.) equilibrated to r.t.
5 μL of each solution of 1:20 diluted compound from above was transferred to a clear bottomed, black, 384-well assay plate using the Bravo or the Janus (384-well MDT head from Perkin Elmer). Using a 16-channel Matrix multi-channel pipette, 35 μL of the working solution of HDAC4 catalytic domain enzyme (0.2 μg/mL in assay buffer) was transferred to the assay plate. The assay was then started by adding 10 μL of 5× (50 μM) substrate to the assay plates using either the Bravo, Janus or 16-channel Matrix multi-channel pipette. The assay plate was then shaken for two minutes on an orbital shaker at 900 rpm (rotations per minute). Next the plate was incubated for 15 minutes at 37° C. The reaction was stopped by adding 25 μL of 3× (30 μM) developer/stop solution to the assay plates using either the Bravo, Janus or a 16-channel Matrix multi-channel pipette. Assay plates were then shaken for 5 minutes on an orbital shaker at 1200 rpm. Next, the assay plates were incubated at 37° C. for 1 hour in a tissue culture incubator. Finally, the fluorescence was measured (Excitation: 355 nm, Emission: 460 nm) using PerkinElmer EnVision in top read mode.

Assay [2] deals with cellular Class IIa HDAC activity in Jurkat E6-1 cells. Description: Inhibition of cellular Class IIa HDAC activity, Cell (Lys-TFA) substrate. Type of assay: cell-based. The note with it: Boc-Lys(TFA)-AMC. The text has this:
Example 17: Analysis of Inhibition of Cellular Class IIa HDAC Activity with Class IIa Histone Deacetylase (HDAC) Inhibitors: Cell (Lys-TFA) Substrate
The potency of Class IIa Histone Deacetylase (HDAC) inhibitors was quantified by measuring the cellular histone deacetylase enzymatic activity using the fluorogenic substrate, Boc-Lys(TFA)-AMC. After penetration in Jurkat E6-1 cells, the substrate was deacetylated to Boc-Lys-AMC. After cell lysis and cleavage by trypsin, the fluorophore AMC was released from the deacetylated substrate only. The fluorescence of the sample was directly related to the histone deacetylase activity in the sample.
Jurkat E6.1 cells were cultured according to standard cell culture protocols in Jurkat E6.1 Growth Media (RPMI without phenol red, 10% FBS, 10 mM HEPES, and 1 mM Sodium Pyruvate). Jurkat E6.1 cells were counted using a Coulter Counter and resuspended in Jurkat E6.1 growth media at a concentration of 75,000 cells/35 μL. 35 μL or 75,000 cells was seeded into Greiner microtitre assay plates. The plates were then incubated at 37° C. and 5% CO2 while other assay components were being prepared.
Serial dilutions of the HDAC inhibitors and control reference compound (1-(5-(3-((4-(1,3,4-oxadiazol-2-yl)phenoxy)methyl)-1,2,4-oxadiazol-5-yl)thiophen-2-yl)-2,2,2-trifluoroethanone) were made by first resuspending the lyophilized compound to a final concentration of 10 mM in 100% DMSO. Stocks of […] aliquots of the 10 mM compound in DMSO were prepared and stored at −20° C. From one stock aliquot of each tested compound and the reference compound, a 16-point serial dilution was prepared according to Table 1 using a 125 μL 16-channel Matrix multi-channel pipette.
2 μL (200×) of each diluted solution and each control (full activity: 100% DMSO alone or full inhibition 1 mM) was stamped into V-bottom polypropylene 384-well compound plates using either the Bravo, Janus, or 12.5 μL 16-channel Matrix multi-channel pipette. Each well with the 200× compound solution was diluted 1:20 by the addition of 38 μL Jurkat assay buffer+DMSO (9.5% DMSO, RPMI without phenol red, 0.09% FBS, 9 mM Hepes, and 0.9 mM Sodium Pyruvate equilibrated to r.t.)
5× (500 μM) substrate was prepared just prior to the addition to the assay. The 5× substrate was prepared by diluting a 100 mM Boc-Lys(TFA)-AMC in DMSO solution 1:200 by adding it drop-wise to Jurkat assay medium (RPMI without phenol red, 0.1% FBS, 10 mM Hepes, and 1 mM Sodium Pyruvate equilibrated to 37° C.) while vortexing at slow speed to prevent precipitation.
10 mL of 3× lysis buffer was prepared with 8.8 mL of 3× stock lysis buffer (50 mM Tris-HCl, pH 8.0, 137 mM NaCl, 2.7 mM KCl, 1 mM MgCl2, 1% Nonidet P40 Substitute equilibrated to r.t.) and 1.2 mL of 3 mg/mL Trypsin equilibrated to r.t.
5 μL of each solution of 1:20 diluted compound from above was transferred to the Greiner microtitre assay plates with 75,000 cells/well using the Bravo. Cells were then incubated for 2 hours at 37° C. and 5% CO2. The assay was then started by adding 10 μL of 5× (500 μM) substrate to the assay plate using either the Bravo or 16-channel Matrix multi-channel pipette. The cells were then incubated for 3 hours at 37° C. and 5% CO2. Next, 25 μL of 3× lysis buffer was added to each well using either the 125 μL 16 channel pipette or the Bravo. The assay plate was then incubated overnight (15-16 hours) at 37° C. and 5% CO2. The following day, the plates were shaken on an orbital shaker for 1 minute at 900 rpm. Finally the top read fluorescence (Excitation: 355 nm, Emission: 460 nm) was measured using PerkinElmer EnVision.

The test system of assay [3] is cellular Class I HDAC activity in Jurkat E6-1 cells. Description: Inhibition of cellular Class I HDAC activity, Cell (Lys-Ac) substrate. Format: cell-based. Particulars: Boc-Lys(Ac)-AMC. The procedure: Example 18: Analysis of Inhibition of Cellular Class I HDAC Activity with Class IIa Histone Deacetylase (HDAC) Inhibitors: Cell (Lys-Ac) Substrate
The Class I HDAC activity of Class IIa Histone Deacetylase (HDAC) inhibitors was quantified by measuring the cellular histone deacetylase enzymatic activity using the fluorogenic substrate, Boc-Lys(Ac)-AMC. This was performed according to the procedure in Example 17, using Boc-Lys(Ac)-AMC substrate in place of Boc-Lys(TFA)-AMC.

Setting [4] is: Homo sapiens, Jurkat E6.1, Jurkat E6.1 cells.

By IC50 is commonly meant the concentration at which inhibition is half-maximal.

Structures can show the parent of a compound that is named as a salt.

human catalytic domain HDAC4 protein, sequence (P56524 648-1032): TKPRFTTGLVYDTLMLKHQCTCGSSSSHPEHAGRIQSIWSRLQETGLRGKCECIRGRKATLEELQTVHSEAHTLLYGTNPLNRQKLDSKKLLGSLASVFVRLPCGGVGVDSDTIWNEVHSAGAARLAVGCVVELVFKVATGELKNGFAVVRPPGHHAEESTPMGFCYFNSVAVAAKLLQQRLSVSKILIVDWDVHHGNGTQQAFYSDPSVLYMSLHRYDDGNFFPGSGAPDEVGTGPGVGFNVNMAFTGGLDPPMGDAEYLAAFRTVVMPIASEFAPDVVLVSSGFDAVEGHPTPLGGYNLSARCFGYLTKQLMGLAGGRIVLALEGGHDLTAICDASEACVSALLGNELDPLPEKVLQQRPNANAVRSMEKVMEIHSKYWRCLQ

On to `O=C(NC1(CN2CCCC2C2CC2)CC1)c1ccc(-c2noc(C(F)(F)F)n2)cc1` (single isomer, unassigned) [Example 6, E1-(abs)-N-(1-((2-Cyclopropylpyrrolidin-1-yl)methyl)cyclopropyl)-4-(5-(trifluoromethyl)-1,2,4-oxadiazol-3-yl)benzamide], for which the figures for the IC50 in assay [1], in assay [2] (setting [4]) and in assay [3] (Jurkat E6.1 cells) were 8 nM, 28 nM and 1500 nM, respectively.

Take `CC1(C)CCCN(CC2(NC(=O)c3ccc(-c4noc(C(F)(F)F)n4)c(F)c3)CC2)C1` [Example 12, N-(1-((3,3-Dimethylpiperidin-1-yl)methyl)cyclopropyl)-3-fluoro-4-(5-(trifluoromethyl)-1,2,4-oxadiazol-3-yl)benzamide]: the results for the IC50 in assay [1], in assay [2] (setting [4]) and in assay [3] (setting [4]) were 76 nM, 312 nM and 15100 nM, respectively.

`CC1(C)CCCN(CC2(NC(=O)c3ccc(-c4noc(C(F)(F)F)n4)cc3)CC2)C1` [Example 8, N-(1-((3,3-Dimethylpiperidin-1-yl)methyl)cyclopropyl)-4-(5-(trifluoromethyl)-1,2,4-oxadiazol-3-yl)benzamide formate]: the figures for the IC50 in assay [1], in assay [2] (setting [4]) and in assay [3] (setting [4]) were 30 nM, 45 nM and 2500 nM, respectively.

On to `O=C(NC1(CN2CCCC3(CC3)C2)CC1)c1ccc(-c2noc(C(F)(F)F)n2)cc1` [Example 1, N-(1-(5-Azaspiro[2.5]octan-5-ylmethyl)cyclopropyl)-4-(5-(trifluoromethyl)-1,2,4-oxadiazol-3-yl)benzamide], for which the values for the IC50 in assay [1], in assay [2] (setting [4]) and in assay [3] (setting [4]) were 50 nM, 140 nM and 2600 nM, respectively.

In the case of `O=C(NC1(CN2CCC3(CC2)COC3)CC1)c1ccc(-c2noc(C(F)(F)F)n2)cc1` [Example 2, N-(1-(2-Oxa-7-azaspiro[3.5]nonan-7-ylmethyl)cyclopropyl)-4-(5-(trifluoromethyl)-1,2,4-oxadiazol-3-yl)benzamide], the IC50 in assay [1] worked out at 110 nM; in assay [2] (setting [4]), 240 nM; in assay [3] (setting [4]) it was 4900 nM.

In the case of `O=C(NC1(CN2CCCC2C2CC2)CC1)c1ccc(-c2noc(C(F)(F)F)n2)cc1` (single isomer, unassigned) [Example 7, E2-(abs)-N-(1-((2-Cyclopropylpyrrolidin-1-yl)methyl)cyclopropyl)-4-(5-(trifluoromethyl)-1,2,4-oxadiazol-3-yl)benzamide], the results for the IC50 in assay [1], in assay [2] (Jurkat E6.1 cells) and in assay [3] (Jurkat E6.1 cells) were 3 nM, 14 nM and 540 nM, respectively.

Consider `C[C@H]1CCCN1CC1CC1NC(=O)c1ccc(-c2noc(C(F)(F)F)n2)cc1` (single isomer, unassigned) [Example 11], for which the results for the IC50 in assay [1], in assay [2] (setting [4]) and in assay [3] (setting [4]) were 230 nM, 1000 nM and 36600 nM, respectively.

In the case of `O=C(NC1(CN2CCCC23COC3)CC1)c1ccc(-c2noc(C(F)(F)F)n2)cc1` [Example 3, N-(1-(2-Oxa-5-azaspiro[3.4]octan-5-ylmethyl)cyclopropyl)-4-(5-(trifluoromethyl)-1,2,4-oxadiazol-3-yl)benzamide], the concentration for half-maximal inhibition (IC50) in assay [1] amounted to 750 nM; in assay [2] (setting [4]) it was 390 nM; in assay [3] (setting [4]), 8600 nM.

For `O=C(NC1(CN2CCCC23COC3)CCC1)c1ccc(-c2noc(C(F)(F)F)n2)cc1` [Example 10, N-(1-(2-Oxa-5-azaspiro[3.4]octan-5-ylmethyl)cyclobutyl)-4-(5-(trifluoromethyl)-1,2,4-oxadiazol-3-yl)benzamide], the values for the IC50 in assay [1], in assay [2] (setting [4]) and in assay [3] (setting [4]) were 750 nM, 390 nM and 8600 nM, respectively.

In the case of `O=C(NC1(CN2CCC3(CC2)CC3)CC1)c1ccc(-c2noc(C(F)(F)F)n2)cc1` [Example 5, N-(1-(6-Azaspiro[2.5]octan-6-ylmethyl)cyclopropyl)-4-(5-(trifluoromethyl)-1,2,4-oxadiazol-3-yl)benzamide], the results for the IC50 in assay [1], in assay [2] (setting [4]) and in assay [3] (setting [4]) were 89 nM, 370 nM and 2000 nM, respectively.

Regarding `O=C(NC1(CN2CC3CCC(C3)C2)CC1)c1ccc(-c2noc(C(F)(F)F)n2)cc1` [Example 4, N-(1-(-3-Azabicyclo[3.2.1]octan-3-ylmethyl)cyclopropyl)-4-(5-(trifluoromethyl)-1,2,4-oxadiazol-3-yl)benzamide], the IC50 in assay [2] (setting [4]) came to 690 nM; in assay [3] (setting [4]), 7800 nM.
